The values below come from US20110015226A1, “Treatment of Energy Utilization Disease” (SUMMIT CORPORATION PLC, priority 2008, published 2011).

Where two headings read alike, the source gives them in different places. Where only a bound is given, the exact number is not on record here.

What all share (assay type): biochemical
Assay [1] deals with α-D-glucosidase (Bacillus) (Geobacillus stearothermophilus, UniProt A0ACH1E9U3). Description: Glycosidase inhibition: α-D-glucosidase (Bacillus). The note with it: compounds tested at 0.8 mM. The text has this: (§1) The results tabulated below were obtained using commercially available glycosidases and p-nitrophenyl-substrates using standard methods described for example by Watson et al (1997) Phytochemistry 46 255-259. All enzymes and substrates were bought from Sigma. Enzyme and substrate solutions were made using sodium phosphate buffers at the pH optima values. The enzymes used were α-D-glucosidase Saccharomyces cerevisiae, Bacillus stearothermophilus, Oryzae sativa), β-D-glucosidase (Almond), α-D-mannosidase (Jack bean), α-D-galactosidase (Green coffee beans), β-D-galactosidase (Bovine liver), α-L-fucosidase (Bovine kidney), N-acetyl-β-D-glucosaminidase (Bovine kidney, Jack bean, Aspergillus oryzae), Naringinase (Penicillium decumbens) and amyloglucosidase (Aspergillus niger). All enzymes were used with the appropriate p-nitrophenyl substrates (5 mM). Amyloglucosidase activity was measured using amylopectin (0.1%) (Merck) mixed with sodium phosphate buffer, pH 4.5 in a glass bottle, and healed in a boiling water bath for 20 minutes to dissolve with released glucose measured using ‘Trinder’ glucose detection solution (Sigma).
(§2) All enzymes and para-nitrophenyl substrates were purchased from Sigma, with the exception of beta-mannosidase which came from Megazyme. Enzymes were assayed at 27° C. in 0.1M citric acid/0.2M disodium hydrogen phosphate buffers at the optimum pH for the enzyme. The incubation mixture consisted of 10 μl enzyme solution, 10 μl of 1 mg/ml aqueous solution of extract and 50 μl of the appropriate 5 mM para-nitrophenyl substrate made up in buffer at the optimum pH for the enzyme. The reactions were stopped by addition of 70 μl 0.4M glycine (pH 10.4) during the exponential phase of the reaction, which had been determined at the beginning using uninhibited assays in which water replaced inhibitor. Final absorbances were read at 405 nm using a Versamax microplate reader (Molecular Devices). Assays were carried out in triplicate, and the values given are means of the three replicates per assay. (See Watson, A. A., Nash, R. J., Wormald, M. R., Harvey, D. J., Dealler, S., Lees, E., Asano, N., Kizu, H., Kato, A., Griffiths, R. C., Cairns, A. J. and Fleet, G. W. J. (1997). Glycosidase-inhibiting pyrrolidine alkaloids from Hyacinthoides non-scripta. Phytochemistry 46 (2): 255-259.)

Assay [2] deals with T1, α-D-mannosidase Jack bean (Canavalia ensiformis, UniProt C0HJB3).
T1 construct: α-D-mannosidase (Jack bean); purchased Sigma
T1 sequence (C0HJB3 1-981): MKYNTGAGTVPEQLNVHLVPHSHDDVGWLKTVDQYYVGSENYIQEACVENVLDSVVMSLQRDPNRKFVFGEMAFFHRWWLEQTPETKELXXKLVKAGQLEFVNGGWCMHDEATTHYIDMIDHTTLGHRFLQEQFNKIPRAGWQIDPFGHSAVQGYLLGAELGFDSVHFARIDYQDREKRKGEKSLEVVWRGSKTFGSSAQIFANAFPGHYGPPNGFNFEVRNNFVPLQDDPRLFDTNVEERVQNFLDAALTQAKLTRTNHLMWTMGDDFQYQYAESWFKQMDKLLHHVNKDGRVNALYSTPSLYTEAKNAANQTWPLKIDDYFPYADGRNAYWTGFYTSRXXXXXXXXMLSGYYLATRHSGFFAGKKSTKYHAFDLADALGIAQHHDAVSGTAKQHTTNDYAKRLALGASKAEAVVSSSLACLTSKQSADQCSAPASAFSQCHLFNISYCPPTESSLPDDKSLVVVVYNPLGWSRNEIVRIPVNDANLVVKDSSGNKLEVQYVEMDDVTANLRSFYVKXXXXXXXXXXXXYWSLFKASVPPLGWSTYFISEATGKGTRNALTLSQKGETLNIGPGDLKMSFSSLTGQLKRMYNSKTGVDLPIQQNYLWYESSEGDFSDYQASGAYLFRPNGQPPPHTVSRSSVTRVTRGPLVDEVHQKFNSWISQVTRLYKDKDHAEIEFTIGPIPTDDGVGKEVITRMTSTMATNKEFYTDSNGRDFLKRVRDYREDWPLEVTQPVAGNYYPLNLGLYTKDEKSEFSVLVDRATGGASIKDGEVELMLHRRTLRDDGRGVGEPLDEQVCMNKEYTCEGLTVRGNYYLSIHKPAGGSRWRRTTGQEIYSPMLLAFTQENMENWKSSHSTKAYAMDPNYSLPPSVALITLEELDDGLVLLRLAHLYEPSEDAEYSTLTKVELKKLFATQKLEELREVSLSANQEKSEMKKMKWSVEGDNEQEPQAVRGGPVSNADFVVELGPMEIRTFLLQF
Description: Glycosidase inhibition: α-D-mannosidase Jack bean. The note with it: compounds tested at 0.8 mM.

Assay [3] concerns the target T2, Amyloglucosidase Aspergillus niger (Aspergillus niger, UniProt P69328).
T2 construct: purchased Sigma
Description: Glycosidase inhibition: Amyloglucosidase Aspergillus niger. The note with it: compounds tested at 0.8 mM.
Description: as §1, §2

Assay [4] concerns the target T3, α-D-glucosidase (Yeast) (Saccharomyces cerevisiae, UniProt P53341).
T3 construct: purchased Sigma
Description: Glycosidase inhibition: α-D-glucosidase (Yeast). The note with it: compounds tested at 0.8 mM.
Description: as §1, §2

In assay [5] the target is T4, β-Glucuronidase Bovine liver (Bos taurus, UniProt A3KMY8).
T4 construct: The assay involved the use of Bovine liver β-glucuronidase; purchased Sigma; host or cells: bovine liver
T4 sequence (A3KMY8 1-652): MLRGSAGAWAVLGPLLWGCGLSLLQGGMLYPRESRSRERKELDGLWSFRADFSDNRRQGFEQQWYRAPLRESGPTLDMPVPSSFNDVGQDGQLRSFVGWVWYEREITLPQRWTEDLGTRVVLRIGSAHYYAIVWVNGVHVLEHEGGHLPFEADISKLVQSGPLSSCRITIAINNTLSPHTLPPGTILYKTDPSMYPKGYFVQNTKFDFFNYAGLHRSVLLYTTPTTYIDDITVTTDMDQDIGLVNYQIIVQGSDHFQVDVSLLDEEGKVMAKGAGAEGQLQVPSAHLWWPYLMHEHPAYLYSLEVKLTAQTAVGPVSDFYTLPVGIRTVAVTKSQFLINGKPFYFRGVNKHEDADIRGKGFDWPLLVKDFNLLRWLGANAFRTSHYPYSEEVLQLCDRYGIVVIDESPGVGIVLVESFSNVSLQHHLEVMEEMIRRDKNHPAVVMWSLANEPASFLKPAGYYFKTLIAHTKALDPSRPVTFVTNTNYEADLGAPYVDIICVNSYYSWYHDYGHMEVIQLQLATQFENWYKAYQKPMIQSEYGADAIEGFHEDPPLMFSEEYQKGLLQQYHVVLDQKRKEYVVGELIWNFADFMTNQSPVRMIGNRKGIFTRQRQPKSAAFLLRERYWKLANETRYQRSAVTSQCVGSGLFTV
As to the kind of experiment: Glycosidase inhibition: β-Glucuronidase Bovine liver.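 Note: bovine liver β-glucuronidase acting on p-nitrophenyl β-D-glucuronide substrate in citric acid/disodium hydrogen phosphate buffer, pH 5.0, 27 °C, mean of triplicate runs.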

The subject of assay [6] is N-acetyl-β-D-glucosaminidase (Bovine kidney). Description: Glycosidase inhibition: N-acetyl-β-D-glucosaminidase (Bovine kidney).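 For all read-outs here: enzyme activity followed by cleavage of the matching p-nitrophenyl glycoside (5 mM) in phosphate buffer set to the enzyme's optimal pH.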 The note with it: for % inhibition, N-acetyl-β-D-glucosaminidase (Bovine kidney): compounds tested at 0.8 mM.
Assay [7] deals with T5, N-acetyl-β-D-glucosaminidase (A. oryzae) (Aspergillus oryzae, UniProt Q8J2T0).
T5 construct: purchased Sigma
As to the kind of experiment: Glycosidase inhibition: N-acetyl-β-D-glucosaminidase (A. oryzae). The note with it: compounds tested at 0.8 mM.
Description: as §1, §2

Assay [8] has as its target T6, α-L-fucosidase Bovine kidney (Bos taurus, UniProt Q2KIM0).
T6 construct: α-L-fucosidase (Bovine kidney); purchased Sigma; host or cells: bovine kidney
T6 sequence (Q2KIM0 23-468): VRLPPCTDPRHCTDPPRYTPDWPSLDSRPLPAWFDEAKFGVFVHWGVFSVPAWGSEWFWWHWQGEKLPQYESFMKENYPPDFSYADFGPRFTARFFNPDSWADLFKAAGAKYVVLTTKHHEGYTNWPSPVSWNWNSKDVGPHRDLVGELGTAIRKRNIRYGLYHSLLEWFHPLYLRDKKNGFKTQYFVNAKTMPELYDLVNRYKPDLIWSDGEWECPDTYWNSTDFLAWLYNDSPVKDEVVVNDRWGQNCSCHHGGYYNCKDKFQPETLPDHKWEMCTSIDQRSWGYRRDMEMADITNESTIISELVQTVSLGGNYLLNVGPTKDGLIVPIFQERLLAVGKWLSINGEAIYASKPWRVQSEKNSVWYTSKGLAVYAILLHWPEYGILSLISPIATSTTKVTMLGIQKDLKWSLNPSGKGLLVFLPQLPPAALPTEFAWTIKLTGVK
As to the kind of experiment: Glycosidase inhibition: α-L-fucosidase Bovine kidney. The note with it: compounds tested at 0.8 mM.

For assay [9], the target named is T7, α-D-glucosidase (Rice) (Oryza sativa subsp. japonica, UniProt Q653V7).
T7 construct: purchased Sigma
Description: Glycosidase inhibition: α-D-glucosidase (Rice). The note with it: for inhibition at 800 µM: compounds tested at 0.8 mM; for IC50: read-out: IC50, α-D-glucosidase (Rice).

The target in assay [10] is T8, α-D-galactosidase Green coffee bean (Coffea arabica, UniProt Q42656).
T8 construct: α-D-galactosidase (Green coffee beans); purchased Sigma; host or cells: green coffee beans
As to the kind of experiment: Glycosidase inhibition: α-D-galactosidase Green coffee bean. The note with it: compounds tested at 0.8 mM.
Description: as §1, §2

Assay [11] concerns the target T9, rabbit intestinal sucrase (Oryctolagus cuniculus, UniProt P07768).
T9 construct: The small intestine was dissected out of a female wild rabbit; from tissue; host or cells: small-intestinal mucosa of a female wild rabbit
As to the kind of experiment: Rabbit disaccharidase inhibition assay: sucrase. The note with it: NI: no inhibition at 0.8 mM. On the procedure:
(§3) Sucrose (8.3 mM), maltose (5 mM) and isomaltose (6.3 mM) substrates were made using 0.2 M Macllvaine (citrate-phosphate) buffer, pH 6.0. The glucose detection reagent was prepared according to the supplier's instructions (Megazyme Ltd). Linearity of the timecourse of the reaction between the glucose detection reagent and glucose was tested using a series of glucose dilutions.
(§4) The method for preparation of mammalian small intestine mucosal disaccharidases was based on Griffiths (1998), omitting ammonium sulphate fractionation steps. The small intestine was dissected out of a female wild rabbit, and opened longitudinally using a scalpel. The mucosal layer was scraped off using the edge of a clean microscope slide, and placed into 3 ml of dH2O. The mucosal layer suspension was centrifuged at around 1000 rpm for 30 seconds to sediment tissue debris. The supernatant ([…]) was removed, and centrifuged again at 3500 rcf for 1 minute to remove fine particulates from suspension. The supernatant was diluted to give 0.2-0.25 mg/ml protein and stored at −30° C.
(§5) Enzyme assays were carried out using 5-15 μl of enzyme preparation, 5 μl of test compound (or dH2O for controls) and 15-25 μl of substrate solution. Reactions were covered using a sheet of plate sealing film, and incubated at 37° C. for 60 minutes. Glucose (from disaccharide hydrolysis) was quantified by adding 200 μl of glucose detection reagent and incubating the reactions for a further twenty-five minutes. Absorbance was measured at 510 nm against control blanks.

Assay [12] has as its target rabbit intestinal maltase. As to the kind of experiment: Rabbit disaccharidase inhibition assay: maltase. The note with it: NI: no inhibition at 0.8 mM. On the procedure:
as §3, §4, §5

For assay [13], the target named is T10, rabbit intestinal isomaltase (Oryctolagus cuniculus, UniProt P07768).
T10 construct: The small intestine was dissected out of a female wild rabbit; from tissue; host or cells: small-intestinal mucosa of a female wild rabbit
Description: Rabbit disaccharidase inhibition assay: isomaltase. The note with it: NI: no inhibition at 0.8 mM. On the procedure:
as §3, §4, §5

[14] abbreviates: pH 5.0, 27° C., p-nitrophenyl β-D-glucuronide, read-out: IC50, β-Glucuronidase Bovine liver.
Where [15] appears, read: read-out: IC50, N-acetyl-β-D-glucosaminidase (Bovine kidney).

T5 sequence (Q8J2T0 97-600): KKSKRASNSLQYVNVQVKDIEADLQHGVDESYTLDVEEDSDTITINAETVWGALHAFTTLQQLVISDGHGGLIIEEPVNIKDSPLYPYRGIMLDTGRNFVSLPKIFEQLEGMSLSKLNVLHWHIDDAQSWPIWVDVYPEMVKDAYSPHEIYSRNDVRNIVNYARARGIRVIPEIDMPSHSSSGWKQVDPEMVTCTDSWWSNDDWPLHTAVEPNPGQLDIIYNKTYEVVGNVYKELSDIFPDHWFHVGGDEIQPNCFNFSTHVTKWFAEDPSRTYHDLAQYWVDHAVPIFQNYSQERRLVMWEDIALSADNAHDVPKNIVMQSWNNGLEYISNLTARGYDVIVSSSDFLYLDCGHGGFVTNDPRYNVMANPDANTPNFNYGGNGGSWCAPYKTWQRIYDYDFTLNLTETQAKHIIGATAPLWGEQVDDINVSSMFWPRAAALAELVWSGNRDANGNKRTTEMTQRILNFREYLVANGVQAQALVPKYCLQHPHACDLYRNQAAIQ
T7 sequence (Q653V7 34-885): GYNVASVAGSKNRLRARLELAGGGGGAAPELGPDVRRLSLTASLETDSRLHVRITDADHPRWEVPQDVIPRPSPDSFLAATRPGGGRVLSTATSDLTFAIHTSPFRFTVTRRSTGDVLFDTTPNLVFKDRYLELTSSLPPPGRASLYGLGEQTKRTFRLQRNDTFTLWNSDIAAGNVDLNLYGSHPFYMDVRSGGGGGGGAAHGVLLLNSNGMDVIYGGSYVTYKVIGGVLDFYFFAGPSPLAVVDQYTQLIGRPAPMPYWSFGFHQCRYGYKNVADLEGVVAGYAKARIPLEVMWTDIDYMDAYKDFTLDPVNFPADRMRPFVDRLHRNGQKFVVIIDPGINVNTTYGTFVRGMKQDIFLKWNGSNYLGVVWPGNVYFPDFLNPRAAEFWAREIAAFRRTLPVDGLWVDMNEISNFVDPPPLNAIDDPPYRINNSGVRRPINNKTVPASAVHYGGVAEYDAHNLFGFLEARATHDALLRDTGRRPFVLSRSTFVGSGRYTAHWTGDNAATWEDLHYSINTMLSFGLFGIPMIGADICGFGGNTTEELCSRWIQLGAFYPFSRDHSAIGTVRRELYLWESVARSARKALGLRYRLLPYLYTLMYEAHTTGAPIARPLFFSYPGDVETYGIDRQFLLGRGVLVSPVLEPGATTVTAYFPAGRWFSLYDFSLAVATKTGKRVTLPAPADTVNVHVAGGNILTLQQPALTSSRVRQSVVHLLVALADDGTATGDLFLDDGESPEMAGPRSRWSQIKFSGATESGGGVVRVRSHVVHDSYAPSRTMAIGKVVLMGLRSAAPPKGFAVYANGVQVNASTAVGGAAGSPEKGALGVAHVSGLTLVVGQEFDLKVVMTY
Chain of α-D-glucosidase (Bacillus) (A0ACH1E9U3 entry or part of it): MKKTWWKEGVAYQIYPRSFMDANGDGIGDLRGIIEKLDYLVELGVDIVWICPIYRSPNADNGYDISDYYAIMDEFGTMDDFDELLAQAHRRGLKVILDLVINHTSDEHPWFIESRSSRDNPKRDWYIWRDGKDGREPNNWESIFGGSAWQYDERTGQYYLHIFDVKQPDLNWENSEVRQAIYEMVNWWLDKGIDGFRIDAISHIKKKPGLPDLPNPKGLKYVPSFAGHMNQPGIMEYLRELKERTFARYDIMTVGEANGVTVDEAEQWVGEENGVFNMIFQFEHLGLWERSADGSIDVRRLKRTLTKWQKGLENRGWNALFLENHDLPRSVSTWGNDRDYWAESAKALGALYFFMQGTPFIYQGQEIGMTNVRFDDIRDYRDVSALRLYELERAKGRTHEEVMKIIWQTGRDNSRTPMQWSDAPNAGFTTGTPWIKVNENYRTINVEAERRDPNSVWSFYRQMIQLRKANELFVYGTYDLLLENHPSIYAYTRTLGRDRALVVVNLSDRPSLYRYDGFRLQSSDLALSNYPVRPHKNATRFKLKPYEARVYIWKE
T2 sequence (P69328 25-640): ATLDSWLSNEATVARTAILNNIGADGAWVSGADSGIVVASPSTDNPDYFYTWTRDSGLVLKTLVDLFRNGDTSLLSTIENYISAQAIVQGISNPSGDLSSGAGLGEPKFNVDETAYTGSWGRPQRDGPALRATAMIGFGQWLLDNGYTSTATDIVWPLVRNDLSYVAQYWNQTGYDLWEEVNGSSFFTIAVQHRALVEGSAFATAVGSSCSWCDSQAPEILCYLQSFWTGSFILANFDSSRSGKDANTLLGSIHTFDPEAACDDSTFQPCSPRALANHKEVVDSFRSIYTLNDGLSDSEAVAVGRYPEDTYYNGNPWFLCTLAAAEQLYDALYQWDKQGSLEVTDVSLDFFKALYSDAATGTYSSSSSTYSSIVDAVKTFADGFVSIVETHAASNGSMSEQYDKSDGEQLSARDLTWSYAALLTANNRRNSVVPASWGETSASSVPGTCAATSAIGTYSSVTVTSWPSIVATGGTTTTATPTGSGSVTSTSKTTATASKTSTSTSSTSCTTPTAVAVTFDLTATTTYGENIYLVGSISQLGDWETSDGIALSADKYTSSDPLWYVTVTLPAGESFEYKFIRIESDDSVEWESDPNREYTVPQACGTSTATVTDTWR
T8 sequence (Q42656 16-378): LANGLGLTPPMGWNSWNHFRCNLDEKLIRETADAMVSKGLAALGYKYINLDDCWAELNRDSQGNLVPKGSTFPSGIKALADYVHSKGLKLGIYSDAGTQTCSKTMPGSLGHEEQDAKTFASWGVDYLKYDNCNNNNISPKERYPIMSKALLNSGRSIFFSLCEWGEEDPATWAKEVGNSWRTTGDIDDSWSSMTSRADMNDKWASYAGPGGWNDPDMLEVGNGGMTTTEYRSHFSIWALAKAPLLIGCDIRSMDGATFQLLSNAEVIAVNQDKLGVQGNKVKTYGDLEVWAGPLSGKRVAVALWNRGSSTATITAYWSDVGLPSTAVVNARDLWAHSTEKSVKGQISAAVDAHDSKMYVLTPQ
T3 sequence (P53341 whole entry): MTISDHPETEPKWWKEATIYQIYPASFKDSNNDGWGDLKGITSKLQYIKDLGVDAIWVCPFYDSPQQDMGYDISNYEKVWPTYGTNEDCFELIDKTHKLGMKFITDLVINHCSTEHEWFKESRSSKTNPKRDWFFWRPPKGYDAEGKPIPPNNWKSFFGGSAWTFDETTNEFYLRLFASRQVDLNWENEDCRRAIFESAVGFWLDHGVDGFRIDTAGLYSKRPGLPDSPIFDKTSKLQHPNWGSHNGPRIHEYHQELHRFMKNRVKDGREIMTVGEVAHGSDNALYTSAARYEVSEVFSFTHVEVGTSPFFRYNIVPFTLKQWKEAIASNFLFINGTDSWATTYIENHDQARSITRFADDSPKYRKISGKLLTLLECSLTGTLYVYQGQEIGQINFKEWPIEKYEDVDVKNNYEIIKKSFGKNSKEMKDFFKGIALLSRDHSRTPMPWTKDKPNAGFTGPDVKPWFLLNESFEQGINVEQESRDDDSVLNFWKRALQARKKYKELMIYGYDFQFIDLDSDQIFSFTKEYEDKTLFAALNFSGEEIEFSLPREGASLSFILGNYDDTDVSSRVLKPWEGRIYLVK

Turning to `O=C(O)CN1C[C@H](O)[C@@H](O)[C@H](O)[C@H]1CO` [Compound G6, 2-((2R,3R,4R,6S)-3,4,5-Trihydroxy-2-(hydroxymethyl)piperidin-1-yl)acetic acid], the inhibition at 800 µM in assay [1], in assay [2], in [3], in assay [4], in assay [7] and in assay [8] was under 50% in each case. In addition, the inhibition (usually the drop in the measured response relative to a control, in per cent) at 800 µM in assay [9] was 99.7%; in assay [10], under 50%. For the same compound, the values for the IC50 in [5] (setting [14]), in [6] (setting [15]) and in assay [9] were 80 µM, 10.4 µM and 1 µM, respectively. The “% inhibition, N-acetyl-β-D-glucosaminidase (Bovine kidney)” value (“% inhibition” below) in assay [6] worked out at 83.6%.

For the compound `O=C(O)[C@@H]1[C@@H](O)[C@H](O)[C@@H](O)CN1CCO` [Compound T3, (2S,3R,4R,5S)-3,4,5-Trihydroxy-1-(2-hydroxyethyl)piperidine-2-carboxylic acid], the inhibition at 800 µM in [1], in assay [2], in assay [3], in [4], in [7] and in assay [8] was under 50% in each case. Further, the inhibition at 800 µM in [9] is 67.2%; in assay [10], under 50%. In addition, the half-inhibitory concentration (IC50) – broadly, the midpoint of a concentration-inhibition curve – worked out at 60 µM in assay [5] (read-out: IC50 against mammalian glucuronidase), 12.2 µM in assay [6] (read-out: IC50 against mammalian 6-N-acetylglucosaminidase (hexosaminidase)) and 259 µM in assay [9]. The “% inhibition” value in [6] amounted to 82.0%.

On to `O=C(O)CN1C[C@@H](O)[C@H](O)[C@H]1CO` [Compound T4, 2-((2R,3R,4R)-3,4-Dihydroxy-2-(hydroxymethyl)pyrrolidin-1-yl)acetic acid], for which the inhibition at 800 µM in assay [1], in assay [2], in [3], in assay [4], in assay [7] and in assay [8] was under 50% in each case. In addition, the inhibition at 800 µM in [9] and in assay [10] was under 50% each time. The IC50 in assay [5] (setting [14]) turned out to be 160 µM; in assay [6] (setting [15]), 39.6 µM. Moreover, in assay [6], the “% inhibition” value amounted to 81.9%.

Take `CCCCN1C[C@H](O)[C@@H](O)[C@H](O)[C@H]1CO` [Zavesca, N-butyl-DNJ, reference compound]: the values for the IC50 in [11], in assay [12] and in [13] were 0.22 µM, 0.97 µM and 0.19 µM, respectively.
